The numbers were not newly measured in patent publication US20200315965A1, “NANOEMULSION CONCENTRATE FORMULATIONS AND METHODS” (priority 2019, published 2020), which cites them from elsewhere.

Structures are written as SMILES.

For this data set the following is noted: water.

Regarding `CCCCCc1cc(O)c2c(c1)OC(C)(C)[C@@H]1CCC(C)=C[C@@H]21` [THC, tetrahydrocannabinol], the aqueous solubility was around 0.003 milligrams per milliliter.
